Where “and” joins values, the source holds several entries; their conditions need not be identical. Equal entries are not always repeated.

Data set [1] concerns ACE from guinea pig or human urine. The data set is described as follows: inhibition of ACE prepared from guinea pig or human urine, [3H]-HipGlyGly substrate. As to conditions: SQ 14,225 at 0.1 μM. Type of data set: biochemical. As to the method: B. In certain experiments, as identified, an alternative assay system was employed using [^3 H]-HipGlyGly as substrate as described by Ryan, J. W., et al., Biochem. J. 167 501 (1977).
Fresh urine was ultrafiltered using a membrane (PTGC 142 05, Millipore Corp., Bedford, MA, U.S.A.) with a 10,000 MW retention limit. Typically, 500 ml of urine was ultrafiltered to approx. 15 ml and then the concentrated proteins were washed with water and then applied to a column (2.5×110 cm) of Sephacryl S-200, Trademark, Pharmacia Chemical Co., Uppsala, Sweden, previously equilibrated with 0.05M TrisHCl buffer, pH 8.0, with 0.5M NaCl. Under these conditions, ACE was eluted in two peaks; one, the major peak, was eluted just after the void volume (Ve /Vo =1.21) and the second (up to 20% of the total activity) at Ve /Vo =1.41. Enzyme activity was measured using [^3 H]-HipGlyGly as described in Example 1B. […] The activities were inhibited to a maximum of 84% by antibody to guinea pig lung ACE. The enzyme used herein was that of the first peak to emerge from the Sepacryl column. The enzyme preparation was concentrated about 10-fold by ultrafiltration. In one such experiment, the concentrated urinary protein solution obtained by ultrafiltration contained 2,400 m units of enzyme at 8.0 m units/mg of protein, and peak 1 from the Sephacryl column contained 1,100 m units at 814 m units/mg of protein. […]

The conditions of data set [2]: oral; most patients; cited from earlier work.
Data set [3] can be described thus: stability of aqueous solution of SQ 14225 on standing. In kind it is physicochemical. To be noted: 1 mg per ml, pH about 8, as little as 30 minutes.
The test system of data set [4] is pressor effects of angiotensin I. The experiment in a line: oral effectiveness: blood pressure response to angiotensin I in anesthetized rats. To be noted: for Blood Pressure Response to 400 ng/kg of Angiotensin I: oral 17 μmol/kg, Ex. 228. In kind it is in vivo, rat. In a few lines:
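Fasted rats under pentobarbital anesthesia (50-60 mg/kg i.p.), ventilated, with carotid arterial pressure recorded; i.v. angiotensin I (80 ng, 160 ng or 400 ng/kg) or angiotensin II (80 ng) challenges repeated at timed intervals after oral gavage of compound (2-20 mg/kg, 10 mg, 17 or 23 μmol/kg) in aqueous NaHCO3.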

Data set [5] has as its system pressor effects of angiotensin II. The data set is described as follows: oral: blood pressure response to angiotensin II in anesthetized rats. Type of data set: in vivo, rat. As to conditions: 12 or 20 mg/kg. The procedure:
Rats (210-290 g body weight) were fasted overnight and then anesthetized with intraperitoneal pentobarbital, 50-60 mg/kg. Tracheostomy was performed and the animals were ventilated mechanically. A cannula was inserted into a femoral vein for injection of angiotensin I or II, and a second cannula was inserted into a common carotid artery for direct measurement of arterial blood pressure. Heparin, 1,000 units, was injected via the femoral vein to prevent coagulation. Blood pressure was measured with a pressure transducer connected to a polygraph. The rats were injected with 80 ng of angiotensin I or angiotensin II in 20 μl of 0.9 g % NaCl; an amount of antiotensin I or II sufficient to raise mean arterial blood pressure by 27-40 mm Hg. After the responsiveness of a given rat to angiotensins I and II was established, compound (I), at 2 or 5 mg/kg (drug dissolved in 0.5 ml of H2 O plus 10 μl of 1N NaHCO3), was given via a stomach tube. At timed intervals, the effects of 80 ng of angiotensin I or angiotensin II on mean arterial blood pressure were tested.
Rats were prepared as described in Example 222. Compound (II) [N-benzoyl-L-phenylalanylthiopropanoyl)-L-proline] was given orally, via a stomach tube, at a dose of 12 mg/kg or 20 mg/kg. Compound (II) was dissolved in 0.5 ml of H2 O plus 10 μl of 1N NaHCO3. […]

For data set [6], the target named is T1, angiotensin converting enzyme (human urinary ACE) (Homo sapiens, UniProt P12821).
T1 construct: ACE purified from human urine; from tissue; host or cells: human urine (ultrafiltration and Sephacryl S-200, first eluting peak; prepared as in Ryan et al., Tissue and Cell 10, 555 (1978))
The experiment in a line: ACE activity assay, I50 (Example 216A). Type of data set: biochemical. As to conditions: human urinary ACE; Benzoyl-GlyHisLeu 1×10^-4 M; Hepes pH 8.0; 37° C; in vitro; read-out: I50.

The nature of data set [7]: resistance of thioester compounds to alkaline hydrolysis. In kind it is physicochemical. The source says:
Therefore the observed inhibitory effects cannot be accounted for by postulating spontaneous hydrolysis of the thioester bond to regenerate the free sulfhydryl group.

Data set [8] has as its system pressor effects of angiotensin I. The data set is described as follows: intravenous effectiveness: blood pressure response to angiotensin I in anesthetized rats. Type of data set: in vivo, rat. To be noted: i.v. 2 μmol/kg, Ex. 229.

T1 sequence (P12821 30-1232 limits assumed): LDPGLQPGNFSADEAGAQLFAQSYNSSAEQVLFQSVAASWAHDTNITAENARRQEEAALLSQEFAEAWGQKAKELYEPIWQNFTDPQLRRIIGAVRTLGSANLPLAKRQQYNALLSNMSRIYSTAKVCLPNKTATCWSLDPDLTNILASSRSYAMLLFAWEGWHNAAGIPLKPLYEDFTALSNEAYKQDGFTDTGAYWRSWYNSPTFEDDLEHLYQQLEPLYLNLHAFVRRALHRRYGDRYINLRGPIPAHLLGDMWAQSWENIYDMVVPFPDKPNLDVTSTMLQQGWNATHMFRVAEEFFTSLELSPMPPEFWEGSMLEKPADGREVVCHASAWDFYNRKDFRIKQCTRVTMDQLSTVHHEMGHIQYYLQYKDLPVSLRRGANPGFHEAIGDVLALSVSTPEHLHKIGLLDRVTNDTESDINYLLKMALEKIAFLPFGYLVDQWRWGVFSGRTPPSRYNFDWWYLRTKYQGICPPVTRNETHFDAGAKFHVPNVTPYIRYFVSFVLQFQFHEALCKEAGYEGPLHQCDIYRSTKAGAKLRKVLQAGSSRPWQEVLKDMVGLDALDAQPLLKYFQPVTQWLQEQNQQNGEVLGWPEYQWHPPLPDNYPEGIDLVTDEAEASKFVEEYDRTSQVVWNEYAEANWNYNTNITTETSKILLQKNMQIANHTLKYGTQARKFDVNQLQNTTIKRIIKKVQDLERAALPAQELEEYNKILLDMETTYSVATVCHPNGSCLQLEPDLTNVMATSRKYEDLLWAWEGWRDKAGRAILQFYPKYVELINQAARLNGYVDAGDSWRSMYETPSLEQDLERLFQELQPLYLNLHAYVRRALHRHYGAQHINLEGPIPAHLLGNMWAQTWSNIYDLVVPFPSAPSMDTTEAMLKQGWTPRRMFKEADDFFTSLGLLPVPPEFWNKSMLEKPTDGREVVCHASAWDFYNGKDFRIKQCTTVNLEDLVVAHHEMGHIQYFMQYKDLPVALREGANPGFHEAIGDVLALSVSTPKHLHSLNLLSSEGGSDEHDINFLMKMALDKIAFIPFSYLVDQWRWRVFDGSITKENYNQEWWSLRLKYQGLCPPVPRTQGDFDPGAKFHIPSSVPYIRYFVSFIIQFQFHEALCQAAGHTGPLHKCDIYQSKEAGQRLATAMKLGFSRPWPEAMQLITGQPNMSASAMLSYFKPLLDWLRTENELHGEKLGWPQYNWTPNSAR

As to `C[C@H](CS)C(=O)N1CCCC1C(=O)O` (stereo in doubt) [SQ 14225, D-3-mercapto-2-methylpropanoyl-L-proline], the “inhibition of activities of both ACE peaks” value in data set [1] is on record as “inhibited completely”. The “stability in normal gastric and intestinal environments” value in data set [2] is “sufficiently stable”. Besides, the “activity of aqueous solution on standing” value in data set [3] is “substantially less active”.
Consider `CC(SC(=O)C(Cc1ccccc1)NC(=O)c1ccccc1)C(=O)N1CCC[C@H]1C(=O)O` (stereo partly drawn) [Compound (II), 2-benzoylphenylalanylthiopropanoyl-L-proline], for which the “Blood Pressure Response to 80 ng of Angiotensin I” value (shortened to “Blood Pressure Response to 80 ng”) in data set [4] (oral 12 mg/kg, 6 min, Rat 1) is 109 % of control; in data set [4] (oral 12 mg/kg, 12 min, Rat 1), 80 % of control; in data set [4] (oral 12 mg/kg, 30 min, Rat 1), 51 % of control; in data set [4] (oral 12 mg/kg, 47 min, Rat 1) it was 71 % of control; in data set [4] (oral 12 mg/kg, 56 min, Rat 1), 69 % of control; in data set [4] (oral 12 mg/kg, 76 min, Rat 1), 63 % of control. Besides, the “Blood Pressure Response to 80 ng” value in data set [4] (oral 12 mg/kg, 150 min, Rat 1) is 49 % of control; in data set [4] (oral 12 mg/kg, 158 min, Rat 1), 57 % of control; in data set [4] (oral 20 mg/kg, 6 min, Rat 2) it was 91 % of control; in data set [4] (oral 20 mg/kg, 12 min, Rat 2), 70 % of control; in data set [4] (oral 20 mg/kg, 23 min, Rat 2), 76 % of control; in data set [4] (oral 20 mg/kg, 30 min, Rat 2) it was 76 % of control. The “Blood Pressure Response to 80 ng” value is listed as 55 % of control in data set [4] (oral 20 mg/kg, 56 min, Rat 2); 40 % of control in data set [4] (oral 20 mg/kg, 76 min, Rat 2); 40 % of control in data set [4] (oral 20 mg/kg, 95 min, Rat 2); 76 % of control in data set [4] (oral 20 mg/kg, 142 min, Rat 2); 76 % of control in data set [4] (oral 20 mg/kg, 158 min, Rat 2); 76 % of control in data set [4] (oral 20 mg/kg, 166 min, Rat 2). Moreover, the “Blood Pressure Response to 80 ng” value in data set [4] (oral 20 mg/kg, 176 min, Rat 2) was 76 % of control. The “pressor effects of angiotensin II (specificity)” value in data set [5] is on record as “did not inhibit”. Also, the IC50 in data set [6] is 70 nM and 40 nM. The “resistance to alkaline hydrolysis” value in data set [7] is listed as “surprisingly resistant to alkaline hydrolysis”.
`C[C@H](CSC(=O)[C@H](Cc1ccccc1)NC(=O)[C@H](CCCCN)NC(=O)C1CCCC1)C(=O)N1CCC[C@H]1C(=O)O` [N-alpha-[3-(N-alpha-cyclopentylcarbonyl-L-lysyl-L-phenylalanylthio)-2-D-methylpropanoyl]-L-proline]: the “Blood Pressure Response to 400 ng/kg of Angiotensin I” value (from here on “Blood Pressure Response to 400 ng/kg”) is 59 % of Control in data set [4] (5 min); 44 % of Control in data set [4] (10 min); 44 % of Control in data set [4] (15 min); 44 % of Control in data set [4] (31 min); 38 % of Control in data set [4] (37 min); 44 % of Control in data set [4] (45 min). For the same compound, the “Blood Pressure Response to 400 ng/kg” value in data set [4] (55 min) is 44 % of Control; in data set [4] (81 min) it was 36 % of Control; in data set [4] (93 min) it was 36 % of Control; in data set [4] (104 min), 38 % of Control; in data set [8] (3 min) it was 8 % of Control; in data set [8] (9 min) it was 15 % of Control. For the same compound, the “Blood Pressure Response to 400 ng/kg” value is recorded as 23 % of Control in data set [8] (14 min); 23 % of Control in data set [8] (19 min); 33 % of Control in data set [8] (24 min); 41 % of Control in data set [8] (37 min); 46 % of Control in data set [8] (45 min); 46 % of Control in data set [8] (54 min). Also, the “Blood Pressure Response to 400 ng/kg” value in data set [8] (77 min) is recorded as 46 % of Control; in data set [8] (87 min), 51 % of Control. In data set [6], the IC50 worked out at 15 nM.

The values are drawn from US4745124A, “Orally effective anti-hypertensive agents” (priority 1983, dated 1988).
